From US12077503B2, “Substituted cyclic amides and their use as herbicides” (FMC CORPORATION, priority 2015, dated 2024)

Experiments:
Experiment in all cases: Test C preemergence
Format in all cases: in vivo
[1] = tested on: lambsquarters (Chenopodium album); conditions: for Plant response rating (scale of 0 to 100), Lambsquarters: 0 is no effect, 100 is complete control; for Plant response rating, Lambsquarters: scale 0 to 100, 0 no effect, 100 complete control
Outline: (§1)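 After treatment with surfactant-containing formulations, either preemergence to seeds in loam-sand soil or postemergence to potted seedlings at 2–18 cm, plants were kept 13–15 d in a greenhouse. Observers then compared them with controls and assigned ratings, 0 signifying no effect and 100 complete control.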

[2] = tested on: morningglory (Ipomoea coccinea); conditions: for Plant response rating (scale of 0 to 100), Morningglory: 0 is no effect, 100 is complete control; for Plant response rating, Morningglory: scale 0 to 100, 0 no effect, 100 complete control
Outline: as §1

[3] = tested on: ryegrass, Italian (Italian ryegrass, Lolium multiflorum); conditions: for Plant response rating (scale of 0 to 100), Ryegrass, Italian: 0 is no effect, 100 is complete control; for Plant response rating, Ryegrass, Italian: scale 0 to 100, 0 no effect, 100 complete control
Outline: as §1

[4] = tested on: barnyardgrass (Echinochloa crus-galli); conditions: for Plant response rating (scale of 0 to 100), Barnyardgrass: 0 is no effect, 100 is complete control; for Plant response rating, Barnyardgrass: scale 0 to 100, 0 no effect, 100 complete control
Outline: as §1

[5] = tested on: nutsedge, yellow (yellow nutsedge, Cyperus esculentus); conditions: for Plant response rating (scale of 0 to 100), Nutsedge, Yellow: 0 is no effect, 100 is complete control; for Plant response rating, Nutsedge, Yellow: scale 0 to 100, 0 no effect, 100 complete control
Outline: as §1

[6] = tested on: foxtail, giant (giant foxtail, Setaria faberii); conditions: for Plant response rating (scale of 0 to 100), Foxtail, Giant: 0 is no effect, 100 is complete control; for Plant response rating, Foxtail, Giant: scale 0 to 100, 0 no effect, 100 complete control
Outline: as §1

[7] = tested on: wheat (winter wheat, Triticum aestivum); conditions: for Plant response rating (scale of 0 to 100), Wheat: 0 is no effect, 100 is complete control; for Plant response rating, Wheat: scale 0 to 100, 0 no effect, 100 complete control
Outline: as §1

[8] = tested on: oilseed rape (Brassica napus); conditions: for Plant response rating (scale of 0 to 100), Oilseed Rape: 0 is no effect, 100 is complete control; for Plant response rating, Oilseed Rape: scale 0 to 100, 0 no effect, 100 complete control
Outline: as §1

[9] = tested on: Galium (catchweed bedstraw, Galium aparine); conditions: for Plant response rating (scale of 0 to 100), Galium: 0 is no effect, 100 is complete control; for Plant response rating, Galium: scale 0 to 100, 0 no effect, 100 complete control
Outline: as §1

[10] = tested on: waterhemp (common waterhemp, Amaranthus rudis); conditions: for Plant response rating (scale of 0 to 100), Waterhemp: 0 is no effect, 100 is complete control; for Plant response rating, Waterhemp: scale 0 to 100, 0 no effect, 100 complete control
Outline: as §1

[11] = tested on: ragweed (common ragweed, Ambrosia elatior); conditions: for Plant response rating (scale of 0 to 100), Ragweed: 0 is no effect, 100 is complete control; for Plant response rating, Ragweed: scale 0 to 100, 0 no effect, 100 complete control
Outline: as §1

[12] = tested on: velvetleaf (Abutilon theophrasti); conditions: for Plant response rating (scale of 0 to 100), Velvetleaf: 0 is no effect, 100 is complete control; for Plant response rating, Velvetleaf: scale 0 to 100, 0 no effect, 100 complete control
Outline: as §1

soybean (Glycine max) = conditions: for Plant response rating (scale of 0 to 100), Soybean: 0 is no effect, 100 is complete control; for Plant response rating, Soybean: scale 0 to 100, 0 no effect, 100 complete control
Outline: as §1

[13] = tested on: crabgrass, large (large crabgrass, Digitaria sanguinalis); conditions: for Plant response rating (scale of 0 to 100), Crabgrass, Large: 0 is no effect, 100 is complete control; for Plant response rating, Crabgrass, Large: scale 0 to 100, 0 no effect, 100 complete control
Outline: as §1

[14] = tested on: pigweed (Amaranthus retroflexus); conditions: for Plant response rating (scale of 0 to 100), Pigweed: 0 is no effect, 100 is complete control; for Plant response rating, Pigweed: scale 0 to 100, 0 no effect, 100 complete control
Outline: as §1

corn (Zea mays) = conditions: for Plant response rating (scale of 0 to 100), Corn: 0 is no effect, 100 is complete control; for Plant response rating, Corn: scale 0 to 100, 0 no effect, 100 complete control
Outline: as §1

Structure (SMILES): CN1CC(c2ccc(C(C)(F)F)cc2)C(C(=O)Nc2ccccc2F)C1=O (stereo not shown) [Compound 691]
- Plant response rating (scale of 0 to 100), Lambsquarters ([1]; 16 g ai/ha): 70
- Plant response rating (scale of 0 to 100), Lambsquarters ([1]; 31 g ai/ha): 85
- Plant response rating, Lambsquarters ([1]; 62 g ai/ha): 90
- Plant response rating, Lambsquarters ([1]; 125 g ai/ha): 90
- Plant response rating (scale of 0 to 100), Morningglory ([2]; 16 g ai/ha): 0
- Plant response rating (scale of 0 to 100), Morningglory ([2]; 31 g ai/ha): 30
- Plant response rating, Morningglory ([2]; 62 g ai/ha): 20
- Plant response rating, Morningglory ([2]; 125 g ai/ha): 40
- Plant response rating (scale of 0 to 100), Ryegrass, Italian ([3]; 16 g ai/ha): 0
- Plant response rating (scale of 0 to 100), Ryegrass, Italian ([3]; 31 g ai/ha): 0
- Plant response rating, Ryegrass, Italian ([3]; 62 g ai/ha): 35
- Plant response rating, Ryegrass, Italian ([3]; 125 g ai/ha): 55
- Plant response rating (scale of 0 to 100), Barnyardgrass ([4]; 16 g ai/ha): 90
- Plant response rating (scale of 0 to 100), Barnyardgrass ([4]; 31 g ai/ha): 90
- Plant response rating, Barnyardgrass ([4]; 62 g ai/ha): 98
- Plant response rating, Barnyardgrass ([4]; 125 g ai/ha): 100
- Plant response rating (scale of 0 to 100), Nutsedge, Yellow ([5]; 16 g ai/ha): 0
- Plant response rating (scale of 0 to 100), Nutsedge, Yellow ([5]; 31 g ai/ha): 0
- Plant response rating, Nutsedge, Yellow ([5]; 62 g ai/ha): 0
- Plant response rating, Nutsedge, Yellow ([5]; 125 g ai/ha): 20
- Plant response rating (scale of 0 to 100), Foxtail, Giant ([6]; 16 g ai/ha): 95
- Plant response rating (scale of 0 to 100), Foxtail, Giant ([6]; 31 g ai/ha): 95
- Plant response rating, Foxtail, Giant ([6]; 62 g ai/ha): 98
- Plant response rating, Foxtail, Giant ([6]; 125 g ai/ha): 98
- Plant response rating (scale of 0 to 100), Wheat ([7]; 16 g ai/ha): 10
- Plant response rating (scale of 0 to 100), Wheat ([7]; 31 g ai/ha): 10
- Plant response rating, Wheat ([7]; 62 g ai/ha): 60
- Plant response rating, Wheat ([7]; 125 g ai/ha): 80
- Plant response rating (scale of 0 to 100), Oilseed Rape ([8]; 16 g ai/ha): 0
- Plant response rating (scale of 0 to 100), Oilseed Rape ([8]; 31 g ai/ha): 35
- Plant response rating, Oilseed Rape ([8]; 62 g ai/ha): 50
- Plant response rating, Oilseed Rape ([8]; 125 g ai/ha): 80
- Plant response rating (scale of 0 to 100), Galium ([9]; 16 g ai/ha): 100
- Plant response rating (scale of 0 to 100), Galium ([9]; 31 g ai/ha): 100
- Plant response rating, Galium ([9]; 62 g ai/ha): 95
- Plant response rating, Galium ([9]; 125 g ai/ha): 95
- Plant response rating (scale of 0 to 100), Waterhemp ([10]; 16 g ai/ha): 85
- Plant response rating (scale of 0 to 100), Waterhemp ([10]; 31 g ai/ha): 85
- Plant response rating, Waterhemp ([10]; 62 g ai/ha): 95
- Plant response rating, Waterhemp ([10]; 125 g ai/ha): 95
- Plant response rating (scale of 0 to 100), Ragweed ([11]; 16 g ai/ha): 0
- Plant response rating (scale of 0 to 100), Ragweed ([11]; 31 g ai/ha): 100
- Plant response rating, Ragweed ([11]; 62 g ai/ha): 70
- Plant response rating, Ragweed ([11]; 125 g ai/ha): 85
- Plant response rating (scale of 0 to 100), Velvetleaf ([12]; 16 g ai/ha): 10
- Plant response rating (scale of 0 to 100), Velvetleaf ([12]; 31 g ai/ha): 25
- Plant response rating, Velvetleaf ([12]; 62 g ai/ha): 40
- Plant response rating, Velvetleaf ([12]; 125 g ai/ha): 50
- Plant response rating (scale of 0 to 100), Soybean (soybean (Glycine max); 16 g ai/ha): 0
- Plant response rating (scale of 0 to 100), Soybean (soybean (Glycine max); 31 g ai/ha): 0
- Plant response rating, Soybean (soybean (Glycine max); 62 g ai/ha): 15
- Plant response rating, Soybean (soybean (Glycine max); 125 g ai/ha): 15
- Plant response rating (scale of 0 to 100), Crabgrass, Large ([13]; 16 g ai/ha): 98
- Plant response rating (scale of 0 to 100), Crabgrass, Large ([13]; 31 g ai/ha): 100
- Plant response rating, Crabgrass, Large ([13]; 62 g ai/ha): 100
- Plant response rating, Crabgrass, Large ([13]; 125 g ai/ha): 100
- Plant response rating (scale of 0 to 100), Pigweed ([14]; 16 g ai/ha): 35
- Plant response rating (scale of 0 to 100), Pigweed ([14]; 31 g ai/ha): 85
- Plant response rating, Pigweed ([14]; 62 g ai/ha): 90
- Plant response rating, Pigweed ([14]; 125 g ai/ha): 100
- Plant response rating (scale of 0 to 100), Corn (corn (Zea mays); 16 g ai/ha): 0
- Plant response rating (scale of 0 to 100), Corn (corn (Zea mays); 31 g ai/ha): 40
- Plant response rating, Corn (corn (Zea mays); 62 g ai/ha): 55
- Plant response rating, Corn (corn (Zea mays); 125 g ai/ha): 65
